Results: ChEMBL document CHEMBL5653615 (J Biol Chem, 2013)

Legend:
[1] = target: T1, Activin receptor type-1 (Homo sapiens) (UniProt Q04771); test: Inhibition of human ALK2 at 500 nM by HotSpot assay relative to control
T1 sequence (whole entry): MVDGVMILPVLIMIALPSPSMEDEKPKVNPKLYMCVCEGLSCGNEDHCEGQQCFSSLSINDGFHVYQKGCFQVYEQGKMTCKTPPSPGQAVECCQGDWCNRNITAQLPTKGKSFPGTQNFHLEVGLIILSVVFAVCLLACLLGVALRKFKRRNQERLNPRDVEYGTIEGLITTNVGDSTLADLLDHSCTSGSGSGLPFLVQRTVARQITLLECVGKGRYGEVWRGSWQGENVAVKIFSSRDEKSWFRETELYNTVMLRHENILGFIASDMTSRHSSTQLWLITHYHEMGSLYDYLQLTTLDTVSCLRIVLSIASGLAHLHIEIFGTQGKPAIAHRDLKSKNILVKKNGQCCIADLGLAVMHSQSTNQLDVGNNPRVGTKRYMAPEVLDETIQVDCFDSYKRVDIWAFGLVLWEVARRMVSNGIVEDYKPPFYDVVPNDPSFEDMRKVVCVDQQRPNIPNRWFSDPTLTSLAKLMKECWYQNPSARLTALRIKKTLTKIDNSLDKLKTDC

[2] = target: T2, Serine/threonine-protein kinase 3 (Homo sapiens) (UniProt Q13188); test: Inhibition of human STK3 at 500 nM by HotSpot assay relative to control
T2 sequence (whole entry): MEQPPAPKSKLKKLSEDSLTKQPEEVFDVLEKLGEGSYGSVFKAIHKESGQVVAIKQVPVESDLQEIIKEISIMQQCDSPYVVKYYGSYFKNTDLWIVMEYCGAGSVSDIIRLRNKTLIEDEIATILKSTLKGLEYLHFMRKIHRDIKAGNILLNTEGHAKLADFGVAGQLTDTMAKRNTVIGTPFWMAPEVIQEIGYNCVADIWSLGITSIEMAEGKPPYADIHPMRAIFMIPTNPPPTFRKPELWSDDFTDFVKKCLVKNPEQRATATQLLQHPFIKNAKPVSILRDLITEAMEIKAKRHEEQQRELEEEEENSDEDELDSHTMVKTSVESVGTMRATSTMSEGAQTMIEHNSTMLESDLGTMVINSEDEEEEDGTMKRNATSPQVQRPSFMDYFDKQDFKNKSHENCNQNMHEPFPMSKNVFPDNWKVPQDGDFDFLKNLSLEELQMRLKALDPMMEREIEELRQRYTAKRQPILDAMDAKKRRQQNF

[3] = target: Insulin-like growth factor 1 receptor (Homo sapiens, UniProt P08069); test: Inhibition of human IGF1R at 500 nM by HotSpot assay relative to control
[4] = target: T3, Ephrin type-A receptor 1 (Homo sapiens) (UniProt P21709); test: Inhibition of human EPHA1 at 500 nM by HotSpot assay relative to control
T3 sequence (whole entry): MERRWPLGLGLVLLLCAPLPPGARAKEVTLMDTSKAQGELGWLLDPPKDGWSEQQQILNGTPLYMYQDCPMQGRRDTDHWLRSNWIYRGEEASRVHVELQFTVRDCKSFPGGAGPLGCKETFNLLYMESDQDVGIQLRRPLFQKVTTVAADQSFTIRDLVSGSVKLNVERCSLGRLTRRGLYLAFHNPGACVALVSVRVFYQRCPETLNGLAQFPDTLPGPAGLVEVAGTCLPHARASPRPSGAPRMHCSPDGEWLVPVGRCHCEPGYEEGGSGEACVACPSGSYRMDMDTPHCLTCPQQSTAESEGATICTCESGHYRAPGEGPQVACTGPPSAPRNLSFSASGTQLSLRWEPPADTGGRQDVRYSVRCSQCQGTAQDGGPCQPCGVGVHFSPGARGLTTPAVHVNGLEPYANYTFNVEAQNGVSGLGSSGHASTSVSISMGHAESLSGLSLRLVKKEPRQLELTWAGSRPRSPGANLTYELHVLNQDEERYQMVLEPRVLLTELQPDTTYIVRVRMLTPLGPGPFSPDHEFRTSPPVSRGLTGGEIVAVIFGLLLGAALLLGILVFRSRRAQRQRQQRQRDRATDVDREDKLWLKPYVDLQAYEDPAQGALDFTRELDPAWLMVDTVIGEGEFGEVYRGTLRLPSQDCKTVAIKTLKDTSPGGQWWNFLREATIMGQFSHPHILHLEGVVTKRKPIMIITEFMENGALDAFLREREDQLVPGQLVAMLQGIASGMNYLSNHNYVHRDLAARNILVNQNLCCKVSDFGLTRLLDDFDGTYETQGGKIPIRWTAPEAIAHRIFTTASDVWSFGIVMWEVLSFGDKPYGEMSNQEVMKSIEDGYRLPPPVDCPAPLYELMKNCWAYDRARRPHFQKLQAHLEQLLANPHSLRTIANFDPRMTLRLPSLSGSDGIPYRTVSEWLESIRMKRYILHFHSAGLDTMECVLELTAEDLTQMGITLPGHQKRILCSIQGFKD

[5] = target: T4, Serine/threonine-protein kinase D3 (Homo sapiens) (UniProt O94806); test: Inhibition of human PRKD3 at 500 nM by HotSpot assay relative to control
T4 sequence (whole entry): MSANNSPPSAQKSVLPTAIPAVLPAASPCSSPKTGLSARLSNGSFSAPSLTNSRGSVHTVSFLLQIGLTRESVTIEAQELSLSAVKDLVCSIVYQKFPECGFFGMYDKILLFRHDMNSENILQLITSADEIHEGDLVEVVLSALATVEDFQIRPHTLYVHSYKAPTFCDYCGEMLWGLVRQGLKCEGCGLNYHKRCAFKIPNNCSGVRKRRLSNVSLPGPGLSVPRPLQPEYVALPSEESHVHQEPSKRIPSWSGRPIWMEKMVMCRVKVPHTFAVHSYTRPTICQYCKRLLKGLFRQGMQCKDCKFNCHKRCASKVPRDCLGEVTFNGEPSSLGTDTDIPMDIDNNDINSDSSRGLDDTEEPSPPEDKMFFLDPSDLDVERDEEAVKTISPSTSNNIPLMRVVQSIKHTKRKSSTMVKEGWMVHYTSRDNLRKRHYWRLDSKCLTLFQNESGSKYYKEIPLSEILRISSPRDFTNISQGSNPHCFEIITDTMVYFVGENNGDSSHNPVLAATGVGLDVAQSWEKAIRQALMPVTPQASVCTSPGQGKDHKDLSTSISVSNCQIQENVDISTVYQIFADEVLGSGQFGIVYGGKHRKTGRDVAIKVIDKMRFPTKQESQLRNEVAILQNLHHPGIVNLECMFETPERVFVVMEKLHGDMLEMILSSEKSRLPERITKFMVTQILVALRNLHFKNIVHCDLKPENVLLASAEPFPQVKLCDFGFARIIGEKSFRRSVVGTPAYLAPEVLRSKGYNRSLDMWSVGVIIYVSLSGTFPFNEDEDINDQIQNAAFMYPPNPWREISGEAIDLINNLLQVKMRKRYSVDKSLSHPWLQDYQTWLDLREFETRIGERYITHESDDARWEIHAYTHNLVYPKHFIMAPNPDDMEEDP

Sequence of Insulin-like growth factor 1 receptor (P08069 31-736 limits assumed): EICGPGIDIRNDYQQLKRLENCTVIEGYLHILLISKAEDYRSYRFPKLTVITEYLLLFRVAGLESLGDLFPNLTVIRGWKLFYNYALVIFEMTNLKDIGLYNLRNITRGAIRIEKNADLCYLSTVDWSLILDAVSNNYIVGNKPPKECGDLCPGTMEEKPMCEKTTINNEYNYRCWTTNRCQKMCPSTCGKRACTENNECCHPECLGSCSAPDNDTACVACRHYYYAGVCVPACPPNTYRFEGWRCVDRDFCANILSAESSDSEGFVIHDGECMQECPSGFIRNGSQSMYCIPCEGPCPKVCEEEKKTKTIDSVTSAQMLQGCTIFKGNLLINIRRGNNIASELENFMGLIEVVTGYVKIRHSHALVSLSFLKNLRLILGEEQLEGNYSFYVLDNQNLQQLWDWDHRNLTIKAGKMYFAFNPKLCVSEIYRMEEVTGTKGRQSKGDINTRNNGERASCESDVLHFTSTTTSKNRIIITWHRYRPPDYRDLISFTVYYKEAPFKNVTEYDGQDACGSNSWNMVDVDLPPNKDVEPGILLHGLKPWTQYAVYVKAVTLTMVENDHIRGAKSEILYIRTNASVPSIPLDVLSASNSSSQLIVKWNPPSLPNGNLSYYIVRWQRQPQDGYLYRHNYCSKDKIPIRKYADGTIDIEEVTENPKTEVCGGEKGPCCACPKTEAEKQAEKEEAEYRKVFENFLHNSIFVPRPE
Sequence of Insulin-like growth factor 1 receptor (P08069 741-1367 limits assumed): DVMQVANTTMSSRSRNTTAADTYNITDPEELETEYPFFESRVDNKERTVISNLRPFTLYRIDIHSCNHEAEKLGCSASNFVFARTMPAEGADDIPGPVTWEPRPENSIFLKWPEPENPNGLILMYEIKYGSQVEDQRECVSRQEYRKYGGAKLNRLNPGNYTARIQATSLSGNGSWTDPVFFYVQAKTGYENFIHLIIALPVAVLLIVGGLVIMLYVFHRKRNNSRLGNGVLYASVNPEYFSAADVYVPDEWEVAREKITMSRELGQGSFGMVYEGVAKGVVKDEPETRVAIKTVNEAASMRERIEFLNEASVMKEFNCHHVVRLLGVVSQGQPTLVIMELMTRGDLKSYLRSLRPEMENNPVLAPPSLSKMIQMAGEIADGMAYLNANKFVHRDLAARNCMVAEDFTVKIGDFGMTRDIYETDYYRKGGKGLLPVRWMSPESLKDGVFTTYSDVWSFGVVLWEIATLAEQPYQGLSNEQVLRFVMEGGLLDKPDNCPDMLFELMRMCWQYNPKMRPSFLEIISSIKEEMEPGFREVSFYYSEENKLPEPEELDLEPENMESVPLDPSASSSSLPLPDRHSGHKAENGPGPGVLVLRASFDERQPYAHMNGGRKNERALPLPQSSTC

Structure (SMILES) | inhibition [1] [%] | inhibition [2] [%] | inhibition [3] [%] | inhibition [4] [%] | inhibition [5] [%]
Nc1n[nH]c2nnc(-c3c(-c4ccccc4)nn4ccccc34)cc12 | -7.19 | -2.01 | -1.88 | 7.41 | 41.1
Oc1n[nH]c2nnc(-c3c(-c4ccccc4)nn4ccccc34)cc12 | 0.23 | 0.75 | -4.89 | 4.34 | 1.12
